One molecule from patent US7176281B2 (priority 2003, dated 2007) can be followed below.

Assay [1] concerns the target T1, 100-kDa human recombinant cytosolic form of PLA2 (cPLA2) (Homo sapiens, UniProt P47712).
T1 sequence (P47712 1-749): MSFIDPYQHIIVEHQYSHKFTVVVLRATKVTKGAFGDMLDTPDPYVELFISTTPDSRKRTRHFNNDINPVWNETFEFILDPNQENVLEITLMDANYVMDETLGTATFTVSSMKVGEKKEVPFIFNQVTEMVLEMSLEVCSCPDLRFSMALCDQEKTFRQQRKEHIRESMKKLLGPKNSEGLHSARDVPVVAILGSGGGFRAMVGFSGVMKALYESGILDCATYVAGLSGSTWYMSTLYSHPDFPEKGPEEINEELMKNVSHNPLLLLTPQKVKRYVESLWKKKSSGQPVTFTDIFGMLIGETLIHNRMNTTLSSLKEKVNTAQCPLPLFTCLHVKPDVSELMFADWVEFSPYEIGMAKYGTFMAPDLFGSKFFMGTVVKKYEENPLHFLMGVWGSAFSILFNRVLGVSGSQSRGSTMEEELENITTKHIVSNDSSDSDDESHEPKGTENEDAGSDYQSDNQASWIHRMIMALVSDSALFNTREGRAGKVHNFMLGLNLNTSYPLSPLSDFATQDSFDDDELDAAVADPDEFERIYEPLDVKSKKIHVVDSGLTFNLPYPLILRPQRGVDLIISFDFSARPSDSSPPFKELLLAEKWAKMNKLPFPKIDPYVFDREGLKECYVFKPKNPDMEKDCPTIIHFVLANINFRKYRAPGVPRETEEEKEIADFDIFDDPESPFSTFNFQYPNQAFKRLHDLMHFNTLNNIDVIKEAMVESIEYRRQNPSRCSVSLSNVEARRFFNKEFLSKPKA
The assay can be described thus: PLA2 inhibition, E. coli membrane assay, cPLA2. It counts as biochemical. The conditions noted are these: inhibition.

For assay [2], the system named is mammalian (human and rat) type IIA sPLA2. It counts as binding.
For assay [3], the system named is Tg197 transgenic mice (chronic inflammatory polyarthritis). As to the kind of experiment: Tg197 transgenic mouse arthritis model, experiment 1 (5 weeks). It counts as in vivo. As to conditions: for % of total joints, AS (1) / % of total joints, AS (1.5–2): 5 week post-treatment; for % of total at indicated HS scores, HS 2 / % of total at indicated HS scores, HS 3 / % of total at indicated HS scores, HS 4 / Mean HS ± SEM: 5 weeks. The procedure: The candidate peptide P-NT.II was dissolved in dimethyl sulfoxide (DMSO) at a final concentration of 3 mg/mL. Two sets of experiments were conducted. In Experiment 1 (n=28 Transgenic (Tg197)+7 wild type (wt), peptide-treated animals (Group B) received intra-peritoneal (i.p) injections of 10 mg/kg, thrice weekly for 5 consecutive weeks, while the vehicle controls (Group E) were injected with DMSO (3 mL/kg) only. Non-transgenic (wild type) mice in different groups (C, D) were similarly treated either with the same i.p dose of peptide or DMSO. At the end of the experiment following 5 weeks of peptide injection, each Tg197 mice received a total dose of 1.8 mg of peptide P-NT.II (0.9 μmole).
Disease monitoring was done by gross observations based on body weight measurements and arthritis scoring, which were done twice weekly after treatment until all the animals were sacrificed at 5th week in experiment 1, or at 4th week in experiment 2. Arthritis score (AS) was recorded on both ankle joints, and average scores as shown below were taken: • 0=no arthritis (normal appearance and flexion); • 0.5=onset of arthritis (mild joint swelling); • 1.0=mild arthritis (joint distortion); • 1.5=as above+finger deformation, less strength on flexion; • […]=moderate arthritis (severe swelling, joint deformation, no strength on flexion); • 2.5=as above+finger deformation in paws; • 3.0=heavy arthritis (ankylosis detected on flexion and severely impaired movement).
For histopathological scoring, both hind legs were dissected and fixed in 10% formaldehyde overnight, decalcified in citrate-buffered formic acid for 3 days at 4° C., and processed for light microscopy (LM). • Histopathological score (HS) was evaluated as follows: • 0=no detectable pathology, • 1=hyperplasia of the synovial membrane and presence of polymorphonuclear infiltrates • 2=pannus and fibrous tissue formation and focal subchondrial bone erosion • 3=articular cartilage destruction and bone erosion • 4=articular cartilage destruction and extensive bone erosion.
Anti-inflammatory activity of the candidate peptide P-NT.II was examined as a new treatment option for modulating rheumatoid arthritis (RA) in a transgenic animal model. To evaluate the potential effectiveness of the peptide as prophylaxis against RA, two separate experiments were performed in 4 week-old transgenic (Tg197) mice and non-transgenic wild-type (wt) mice. These transgenic mice (Tg197) express human tumor necrosis factor (TNFα), a cytokine which has been implicated in the pathogenesis of human RA.

The target in assay [4] is T2, Group IIA purified human synovial sPLA2 (Homo sapiens, UniProt P14555).
T2 construct: purchased Cayman, USA
T2 sequence (P14555 21-144): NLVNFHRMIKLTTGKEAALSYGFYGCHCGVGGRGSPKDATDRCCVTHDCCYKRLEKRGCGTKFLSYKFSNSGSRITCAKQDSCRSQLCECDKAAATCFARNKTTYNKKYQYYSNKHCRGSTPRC
The assay can be described thus: In vitro inhibition of purified human synovial sPLA2, 3H-labelled E. coli membranes. As to conditions: fixed peptide concentration 5 μM. It counts as biochemical.

Where a SMILES comes first, the peptide text is derived from it.

Usually inhibition stands for the drop in the measured response relative to a control, in per cent. Higher therefore signals a response far below the control.

On to `CC[C@H](C)[C@H](NC(=O)[C@H](Cc1ccc(O)cc1)NC(=O)[C@@H](NC(=O)CNC(=O)[C@H](CC(=O)O)NC(=O)[C@H](Cc1c[nH]c2ccccc12)NC(=O)[C@@H](NC(=O)[C@H](Cc1c[nH]cn1)NC(=O)[C@@H](NC(=O)[C@H](CC(=O)O)NC(=O)[C@@H](NC(=O)[C@H](CCCNC(=N)N)NC(=O)CNC(=O)[C@@H](N)CC(C)C)C(C)C)[C@@H](C)CC)C(C)C)C(C)C)C(=O)N[C@@H](CCCNC(=N)N)C(=O)NCC(=O)N[C@@H](CCCNC(=N)N)C(=O)O` [P-NT.II] (H-LGRVDIHVWDGVYIRGR-OH; N-terminus and C-terminus assumed), for which, in assay [1], the “selectivity for sPLA2 over cPLA2” value is “five-fold”. For the same molecule, the “competition with labeled P-NT.II for binding to type IIA sPLA2” value in assay [2] is recorded as “inhibited”. Also, in assay [3] (4 M + 3 F, 14 joints), the “% of total joints, AS (1)” value amounted to 50%; the “% of total joints, AS (1.5–2)” value was found to be 50%; the “% of total at indicated HS scores, HS 2” value stood at 35.7%; the “% of total at indicated HS scores, HS 3” value was 64.3%. In addition, in assay [3] (4 M + 3 F, 14 joints), the “% of total at indicated HS scores, HS 4” value is recorded as 0% and the “Mean HS ± SEM” value is 2.71 ± 0.15. Further, the “% of total at indicated HS scores, HS 2” value in assay [3] (4 M, 8 joints, 10 mg/kg i.p. thrice weekly) is 62.5%. In addition, in assay [3] (4 M, 8 joints), the “% of total joints, AS (1)” value was 87%; the “% of total joints, AS (1.5–2)” value is reported as 13%; the “% of total at indicated HS scores, HS 3” value is given as 37.5%; the “% of total at indicated HS scores, HS 4” value stood at 0%. The “Mean HS ± SEM” value in assay [3] (4 M, 8 joints) is reported as 2.37 ± 0.18. In assay [3] (females, P>0.05), the “effect of peptide on joint damage” value was “less evident”. Further, the “histological scores compared with untreated or DMSO-treated groups” value in assay [3] (male Tg197 mice, P<0.001) is listed as “significantly lower histological scores”. The “histological scores compared with untreated or DMSO-treated mice” value in assay [3] (males + females, P<0.05) is “significantly lower histological scores”. This molecule displayed an inhibition at 5 µM in assay [4] of 55.6%.
